From US9669014B2, “Small molecule inhibitors of superoxide dismutase expression” (Northwestern University, priority 2014, dated 2017)
≈ marks a conversion by molar mass, not a printed value. Entries after “also recorded” stand apart in the source; their conditions may differ. Read-outs that look alike come from different tables or passages of the source.

What was measured:
[1] = tested on: CDK5, CDK2, CDK1, CDK4; settings: cited from earlier work
[2] = tested on: G93A-SOD1 expression; assay: SOD1 protein expression in cultured fibroblasts from G93A-SOD1 mice (ELISA); type: cell-based, mouse; settings: for Effect on SOD1 expression (in words) / Shape of dose-response curve for SOD1 expression / IC50: G93A-SOD1 mouse fibroblasts; for activity at 10 µM: Mus musculus, 48 h, 10 μM compound
Protocol: Fibroblasts were treated with the title compounds at the indicated concentration for 48 hr. Cells were washed, lysed, and SOD1 levels measured by ELISA. SOD1 levels are normalized to the total protein in the lysate.
Thus, we used cultured fibroblasts from the G93A-SOD1 transgenic mouse to screen GSK3β protein kinase inhibitors (FIG. 1) for their effects on SOD1 expression. The transgene construct contains the human SOD1 promoter so that cellular signaling processes that affect transcription of the gene will be fully functional. We chose a structurally diverse group of compounds including some natural products.

[3] = tested on: SOD1 mRNA; assay: SOD1 mRNA in G93A-SOD1 mouse fibroblasts; type: cell-based
Source text: FIG. 3. […] A. Dose-dependent changes in G93A-SOD1 protein expression and B. SOD1 mRNA (n=3). Data are normalized to GAPDH activity (protein) or mRNA. Error bars are SEM.

[4] = tested on: SOD1; assay: SOD1 protein in CNS tissues of treated G93A-SOD1 mice (ELISA); type: in vivo, mouse; settings: 20 mg/kg IP every other day for 26 days
Protocol: FIG. 7. Inhibition of SOD1 protein expression in the G93A-SOD1 mouse. GSK3B-I treatment was at 20 mg/kg IP every other day for 26 days. Mice were sacrificed and SOD1 measured in the indicated tissues. […] Error bars are SEM.
Initial testing was carried out in a small cohort (5-6 animals) of G93A-SOD1 mice (high level of mutant SOD1 expression). The drug was dosed at 20 mg/kg IP every other day for 26 days. Mice were sacrificed and SOD1 was measured by ELISA.

[5] = Distribution in tissues of nontransgenic mice after injection; type: in vivo, mouse; settings: for Concentration (μM), Brain / Concentration (μM), Serum / Concentration (μM), Spinal cord: n = 2; for CNS distribution and persistence (in words): nontransgenic mice; for concentration at 2 h / concentration at 4 h / concentration at 24 h: mouse, other: injection, 10 mg/kg injection
Protocol: The blood brain barrier permeability of GSK3B-II was determined in nontransgenic mice. […] The peak and sustained concentrations found in the spinal cord and brain indicate that the 20 mg/kg dose puts the drug into the inhibitory range found in the cellular assays.
(§1) We also tested compound NUCC-434 for distribution in non-transgenic mice. […] While there are a multitude of methods for improving aqueous solubility of drugs (32) we chose a relatively simple route using a cyclodextrin based carrier (Sulfo-butylether beta-cyclodextrin, Captisol) to solubilize the drug in aqueous solution. Using the cyclodextrin carrier, we were able to solubilize NUCC-434 to 2 mg/mL in water and deliver 10 mg/kg to nontransgenic mice for pharmacokinetics. […] However, the distribution dynamics are different in the presence of the cyclodextrin which appears to slow uptake into the CNS as the peak drug concentration was delayed (Table 4). Such changes in distribution dynamics using cyclodextrins have not been studied in detail.

[6] = tested on: SOD1 expression; assay: SOD1 expression in G93A-SOD1 transgenic mouse motor neurons; type: cell-based
Source text: The compound decreases SOD1 expression in vitro in assays done in mouse fibroblasts (FIG. 3) and mouse motor neurons (FIG. 7).
The mechanism of inhibition is largely due to a decrease in the G93A-SOD1 mRNA. The transgene expressed in the mouse uses the native human promoter. Thus, therapy with these drugs in human subjects would also lead to a decrease in SOD1 mRNA in all tissues.

[7] = biological target: GSK3β (Homo sapiens, UniProt P49841); settings: published values; cited from earlier work
[8] = tested on: cell toxicity; assay: Cell toxicity; type: cell-based
[9] = Solubility in dosing vehicle; type: physicochemical
Protocol: as §1

[10] = tested on: cell toxicity; settings: cited from earlier work
[11] = 20 mg/kg intraperitoneal, 24 hr
[12] = Fibroblast, Table 2, relative to control, read-out: Relative SOD1 expression 10 μM compound
[13] = Fibroblast, Table 5, read-out: Relative SOD1 Expression in Presence of Compound (10 μM)
[14] = brain, cyclodextrin carrier, read-out: Brain
[15] = serum, cyclodextrin carrier, read-out: Serum
[16] = spinal cord, cyclodextrin carrier, read-out: Spinal Cord

Sequence of GSK3β (P49841 whole entry, species assumed): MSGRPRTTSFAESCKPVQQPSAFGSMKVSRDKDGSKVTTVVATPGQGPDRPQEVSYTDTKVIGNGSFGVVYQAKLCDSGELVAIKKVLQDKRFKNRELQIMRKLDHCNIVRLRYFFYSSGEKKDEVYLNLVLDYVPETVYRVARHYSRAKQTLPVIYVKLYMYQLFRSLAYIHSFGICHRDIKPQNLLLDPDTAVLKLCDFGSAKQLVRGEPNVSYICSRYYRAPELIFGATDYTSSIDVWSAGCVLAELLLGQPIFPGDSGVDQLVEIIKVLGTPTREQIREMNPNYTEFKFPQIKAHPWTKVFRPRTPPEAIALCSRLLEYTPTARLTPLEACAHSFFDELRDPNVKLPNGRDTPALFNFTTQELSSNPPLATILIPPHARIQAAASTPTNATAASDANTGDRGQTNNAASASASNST

Row | Compound | Effect on SOD1 expression (in words) [2] | activity at 10 µM [2, 12] [%] | activity at 10 µM [2, 13] [%] | other results
1 | CCCCc1c(-c2ccc(O)cc2)[nH]c2nccnc12 [Aloisine, Aloisine A, reference compound] | increased SOD1 expression |  |  | Comments: other kinases inhibited [1]: Also inhibits CDK5,; Effect on SOD1 expression (in words) ([2]; 48 hr treatment): Increases SOD1
2 | Ic1cccc(CSc2nnc(-c3ccncc3)o2)c1 [GSK3B-II, reference compound] | most potent at inhibiting G93A-SOD1 expression; also recorded: dose dependent reduction of SOD1 expression in vitro |  |  | Effect on SOD1 mRNA [3]: reducing the level of SOD1 mRNA; Change of SOD1 protein in spinal cord, cerebellum, brain stem, cerebral cortex [4]: significant decreases in SOD1 were measured; also recorded: SOD1 protein is reduced; Change of SOD1 protein in spinal cord, cerebellum, brain stem, cerebral cortex ([4]; listed as GSK3B-I): change in expression was significant; Concentration (μM), Brain ([5]; 20 mg/kg intraperitoneal, 1 hr): 0.944 µM; Concentration (μM), Serum ([5]; 20 mg/kg intraperitoneal, 1 hr): 0.672 µM; Concentration (μM), Spinal cord ([5]; 20 mg/kg intraperitoneal, 1 hr): 4.00 µM; Concentration (μM), Brain [5, 11]: 0.077 µM; Concentration (μM), Serum [5, 11]: 0.073 µM; Concentration (μM), Spinal cord [5, 11]: 0.855 µM; CNS distribution and persistence (in words) ([5]; 20 mg/kg intraperitoneal): rapidly distributes into the brain and spinal cord; also recorded: still detectable after 24 hrs in the brain and spinal cord; Effect on SOD1 expression in motor neurons [6]: inhibits SOD1 expression; Shape of dose-response curve for SOD1 expression [2]: biphasic dose-response curve; IC50 ([2]; 48 hr treatment): 625 nM
3 | O=C1Nc2cc(Br)ccc2/C1=C1/Nc2ccccc2/C1=N\O [GSK3B-IX, reference compound] | increased SOD1 expression |  |  | 
4 | O=C(CCl)c1cc(Br)c(Br)s1 [GSK3B-VI, reference compound] | inhibits SOD1 expression |  |  | IC50 [7]: 1000 nM; Concentration at which cell toxicity is exhibited [8]: greater than 5 μM; IC50 ([2]; 48 hr treatment): 650 nM
5 | O=C1Cc2c([nH]c3ccc(Br)cc23)-c2ccccc2N1 [Kenpaullone, reference compound] | only weakly decreased SOD1 expression |  |  | Comments: other kinases inhibited [1]: Also inhibits CDK5,; IC50 ([2]; Fibroblast, 48 hr treatment): 10000 nM
6 | Brc1cccc(CSc2nnc(-c3ccncc3)o2)c1 [NUCC-318] |  | 91 | 90.3 | 
7 | Fc1cccc(CSc2nnc(-c3ccncc3)o2)c1 [NUCC-319] | significant increase in SOD1 expression | 143 | 144 | 
8 | Brc1ccc(CSc2nnc(-c3ccncc3)o2)cc1 [NUCC-320] | no effect on SOD1 expression | 103 | 103 | 
9 | Ic1ccc(CSc2nnc(-c3ccncc3)o2)cc1 [NUCC-321] |  | 69 | 70.2 | 
10 | Brc1ccc(CSc2nnc(-c3cccnc3)o2)cc1 [NUCC-322] |  |  | 68.6 | SOD1 expression, % of control ([2]; 10 μM): 68.6 % of control
11 | Cn1c(SCc2ccc(Br)cc2)nnc1-c1ccncc1 [NUCC-0000323] |  |  | 103 | 
12 | Fc1ccc(CSc2nnc(-c3ccncc3)o2)cc1 [NUCC-324] |  | 86 | 86.3 | 
13 | CSc1nnc(-c2ccncc2-c2ccc(F)cc2)o1 [NUCC-0000404] |  |  | 94.9 | 
14 | Cc1cc(-c2nnc(SCc3ccc(F)cc3)o2)ccn1 [NUCC-0000405] |  |  | 95 | 
15 | O=c1c(C2=NC3C=CC=CC3N2)coc2ccc(Cl)cc12 (centres unmarked) [NUCC-0000406] |  |  | 89.9 | 
16 | N#Cc1ccc(-c2ccc(CSc3nnc(-c4ccc5c(c4)OCO5)o3)cc2)cc1 [NUCC-0000418] |  |  | 114 | 
17 | O=[N+]([O-])c1ccccc1CSc1nnc(-c2ccncc2)o1 [NUCC-0000430] |  |  | 101 | 

Row | Compound | Effect on SOD1 expression (in words) [2] | activity at 10 µM [2, 12] [%] | activity at 10 µM [2, 13] [%] | other results
18 | O=[N+]([O-])c1ccc(CSc2nnc(-c3ccncc3)o2)cc1 [NUCC-431] |  | 102 | 102 | 
19 | O=[N+]([O-])c1cccc(CSc2nnc(-c3ccncc3)o2)c1 [NUCC-432] | tended to cause an increase in SOD1 expression | 117 | 117 | 
20 | COc1cccc(CSc2nnc(-c3ccncc3)o2)c1 [NUCC-433] | dose dependent reduction of SOD1 expression in vitro | 50 | 49.9 | Shape of dose-response curve for SOD1 expression [2]: flattened rather than upward curvature at higher concentration
21 | COc1ccc(CSc2nnc(-c3ccncc3)o2)cc1 [NUCC-434] | dose dependent reduction of SOD1 expression in vitro | 47 | 47.4 | CNS distribution and persistence (in words) ([5]; 10 mg/kg, cyclodextrin carrier): entered the CNS and persisted for 24 hr in the spinal cord; concentration at 2 h [5, 14]: 29 nM; concentration at 4 h [5, 14]: 47 nM; concentration at 2 h [5, 15]: 153 nM; concentration at 4 h [5, 15]: 334 nM; concentration at 24 h ([5]; serum, cyclodextrin carrier, 24 hr, read-out: Serum): 123 nM; concentration at 2 h [5, 16]: 57 nM; concentration at 4 h [5, 16]: 162 nM; concentration at 24 h ([5]; spinal cord, cyclodextrin carrier, 24 hr, read-out: Spinal Cord): 113 nM; Shape of dose-response curve for SOD1 expression [2]: flattened rather than upward curvature at higher concentration; Solubility in standard 1-2% DMSO vehicle ([9]; 1-2% DMSO vehicle): poor; solubility ([9]; aqueous with cosolvent or surfactant or cyclodextrin, Sulfo-butylether beta-cyclodextrin (Captisol) in water, read-out: Solubility in water with cyclodextrin carrier): 2000 µg/mL (≈ 6.68 mM)
22 | FC(F)(F)c1ccc(CSc2nnc(-c3ccncc3)o2)cc1 [NUCC-435] | significant increase in SOD1 expression | 157 | 158 | 
23 | Cc1ccc(CSc2nnc(-c3ccncc3)o2)cc1 [NUCC-436] |  | 126 | 126 | 
24 | c1cc(CSc2nnc(-c3ccncc3)o2)ccn1 [NUCC-437] | not significantly different from control |  | 90.3 | 
25 | c1cncc(CSc2nnc(-c3ccncc3)o2)c1 [NUCC-438] | not significantly different from control |  | 112 | 
26 | Clc1cccc(CSc2nnc(-c3ccncc3)o2)c1 [NUCC-439] |  | 96 | 95.9 | 
27 | Clc1ccc(CSc2nnc(-c3ccncc3)o2)cc1 [NUCC-440] | tended to cause an increase in SOD1 expression | 123 | 123 | 
28 | c1ccc(CSc2nnc(-c3ccncc3)o2)cc1 [NUCC-441] | activates expression of SOD1 | 133 | 133 | 
29 | CSc1nnc(-c2ccnc(Nc3ccccc3)c2)o1 [NUCC-0000471] |  |  | 106 | 
30 | CSc1nnc(-c2ccnc(NCc3ccccc3)c2)o1 [NUCC-0000472] |  |  | 146 | 
31 | CSc1nnc(-c2ccnc(NC3CCOCC3)c2)o1 [NUCC-0000473] |  |  | 127 | 
32 | Cn1cc(C2=C(c3ccc(Cl)cc3Cl)C(=O)NC2=O)c2ccccc21 [SB216763, reference compound] | not more effective at decreasing SOD1 expression in vitro |  |  | IC50 ([2]; Fibroblast, 48 hr treatment): 3000 nM
33 | CCc1nc(N)nc(N)c1-c1ccc(Cl)cc1 [pyrimethamine] |  |  |  | Cell toxicity in vitro [10]: cell toxicity in the effective dose range
